From PMC2195584 (The Journal of Experimental Medicine, 1999)

Key:
[1] = test system: c-fos promoter in Jurkat cells; assay: c-fos luciferase reporter, Jurkat cells; assay type: cell-based; settings: presence and absence of CD28 antibodies, vs wild-type mCD28
[2] = test system: Lymph node T cells from CD28-deficient mice; assay: Proliferation of retrovirally reconstituted T cells from CD28-deficient mice; assay type: cell-based, mouse; settings: single stimulus, anti-CD3 or PMA alone; 36-h culture; quadruplicate
c-Src = settings: coexpression in 293 cells; cited from earlier work

Q: For “mutated form of mCD28: CD28 with alanines substituted for prolines 187 and 190”, which “induction of c-fos promoter (in words)” value [1] is on record?
A: Its value is “significantly impaired in its ability to induce the c-fos promoter”.

Q: For `CCCCCCCCCCCCCC(=O)O[C@@H]1[C@@H](C)[C@@]2(O)[C@@H](C=C(CO)C[C@]3(O)C(=O)C(C)=C[C@@H]23)[C@@H]2C(C)(C)[C@]12OC(C)=O` [PMA], which “proliferation ([3H]thymidine), control retrovirus” value [2] is on record?
A: The value was “proliferated weakly”.

B1: SIN: SH3 binding protein, SIN (protein, UniProt Q64355 1-560, looked up)
Embryonal Fyn-associated …: MAIATSAQLARALYDNTAESPQELSFRRGDVLRVLQREGAGGLDGWCLCSLHGQQGIVPANRVKLLPAGPAPKPSLCPASPTQPGSSCPTPERGCEEQEVYVIPPPARPCSASGLPARSCSPSSDSIYKVPRGNGMQLTASRDVAEVYDVPPNILRAPSSCPYDSPASFSCPVAPVVPQPPREDEAPYDVPLALKPPAELERDPEWEGGREPGPPLYAAPSNLKRASALLNLYEAPEELLANGESRDADEGIYDVPLLGPEPPSPEPPVASSSTDLDTVAQLPTRSSPPQHRPRLPSTESLSRRPLPALPVSEAPAPSPAPSPAPGRKGSIQDRPLPPPPPCLPGYGGLKPEGDPECREVANDPAGPHNEYEGIPMAEEYDYVHLKGVDTAQGSRPLDKAFPVDPELLERGLAERKEALSPEEPLVLSTGDLQLLHFYAGQCQSHYSALQAAVAALVASTQANQPPCLFVPHGKRVVVAAHRLVFVGDTLGRLAASAALRAQVGAAGTMLAQTLRATVLAVKGAALGYPSDTAVQEMARCVAELAGQALRFTTLLDGLLP
Q: For B1, which “c-Src kinase activity induction” value (c-Src) is on record?
A: Its value is “can be induced”.
